Test results: ChEMBL document CHEMBL5465560, “Selectivity Literature for EUbOPEN Chemogenomic Library” (2024)

Tests used:
[1] = molecular target: T1, Ephrin type-B receptor 6 (Homo sapiens) (UniProt O15197); test: Selectivity interaction (KinomeScan (DiscoverX)) EUB0000229b EPHB6; conditions: at 10 µM
T1 sequence (whole entry): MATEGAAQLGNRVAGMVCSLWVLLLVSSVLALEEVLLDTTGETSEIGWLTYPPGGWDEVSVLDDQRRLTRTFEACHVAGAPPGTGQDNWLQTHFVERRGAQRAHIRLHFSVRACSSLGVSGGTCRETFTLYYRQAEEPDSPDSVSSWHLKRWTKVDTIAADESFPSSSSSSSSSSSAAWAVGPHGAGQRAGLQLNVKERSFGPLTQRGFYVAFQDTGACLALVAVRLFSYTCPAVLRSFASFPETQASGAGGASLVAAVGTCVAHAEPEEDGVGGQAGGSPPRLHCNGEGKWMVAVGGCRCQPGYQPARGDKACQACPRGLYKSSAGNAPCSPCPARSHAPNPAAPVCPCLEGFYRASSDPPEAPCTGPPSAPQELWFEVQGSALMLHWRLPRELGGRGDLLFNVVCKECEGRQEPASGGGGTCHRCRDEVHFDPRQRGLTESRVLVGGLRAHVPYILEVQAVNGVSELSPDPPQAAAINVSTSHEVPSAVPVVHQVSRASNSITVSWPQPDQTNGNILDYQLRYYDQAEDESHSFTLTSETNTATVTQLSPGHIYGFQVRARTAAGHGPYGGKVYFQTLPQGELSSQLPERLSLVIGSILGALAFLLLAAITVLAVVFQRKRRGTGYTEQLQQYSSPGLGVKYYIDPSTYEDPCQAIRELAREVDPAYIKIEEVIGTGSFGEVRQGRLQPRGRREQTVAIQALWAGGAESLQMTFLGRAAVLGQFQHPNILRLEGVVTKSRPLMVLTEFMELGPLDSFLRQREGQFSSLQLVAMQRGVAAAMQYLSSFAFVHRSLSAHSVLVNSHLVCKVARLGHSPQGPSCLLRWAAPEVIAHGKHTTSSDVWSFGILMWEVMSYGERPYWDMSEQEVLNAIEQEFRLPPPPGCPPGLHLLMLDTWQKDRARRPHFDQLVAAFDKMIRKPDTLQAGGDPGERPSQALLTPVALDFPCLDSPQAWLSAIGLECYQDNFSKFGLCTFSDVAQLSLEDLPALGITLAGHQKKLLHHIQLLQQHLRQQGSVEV

[2] = molecular target: Activin receptor type-2A (Homo sapiens) (UniProt P27037); test: Selectivity interaction (KinomeScan (DiscoverX)) EUB0000092b ACVR2A; conditions: at 10 µM
Sequence of Activin receptor type-2A (Homo sapiens) (P27037 whole entry): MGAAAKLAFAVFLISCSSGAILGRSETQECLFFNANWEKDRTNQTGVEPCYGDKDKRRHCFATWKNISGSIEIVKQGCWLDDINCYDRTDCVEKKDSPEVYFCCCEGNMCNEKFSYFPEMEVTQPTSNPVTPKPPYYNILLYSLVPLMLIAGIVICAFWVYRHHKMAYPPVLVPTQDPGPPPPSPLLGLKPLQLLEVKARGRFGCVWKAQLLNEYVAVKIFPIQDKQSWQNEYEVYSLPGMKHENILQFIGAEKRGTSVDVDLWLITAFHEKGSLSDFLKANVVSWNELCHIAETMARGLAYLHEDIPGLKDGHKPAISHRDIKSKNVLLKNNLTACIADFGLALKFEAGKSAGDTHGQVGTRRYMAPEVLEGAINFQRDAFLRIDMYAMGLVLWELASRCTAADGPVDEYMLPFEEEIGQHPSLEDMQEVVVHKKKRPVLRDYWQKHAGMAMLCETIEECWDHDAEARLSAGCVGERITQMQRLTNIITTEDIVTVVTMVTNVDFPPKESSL

Activated CDC42 kinase 1 = Activated CDC42 kinase 1 (Homo sapiens, UniProt Q07912); test: Selectivity interaction (KinomeScan (DiscoverX)) EUB0000655a TNK2; conditions: at 10 µM
Sequence of Activated CDC42 kinase 1 (Q07912 whole entry, looked up): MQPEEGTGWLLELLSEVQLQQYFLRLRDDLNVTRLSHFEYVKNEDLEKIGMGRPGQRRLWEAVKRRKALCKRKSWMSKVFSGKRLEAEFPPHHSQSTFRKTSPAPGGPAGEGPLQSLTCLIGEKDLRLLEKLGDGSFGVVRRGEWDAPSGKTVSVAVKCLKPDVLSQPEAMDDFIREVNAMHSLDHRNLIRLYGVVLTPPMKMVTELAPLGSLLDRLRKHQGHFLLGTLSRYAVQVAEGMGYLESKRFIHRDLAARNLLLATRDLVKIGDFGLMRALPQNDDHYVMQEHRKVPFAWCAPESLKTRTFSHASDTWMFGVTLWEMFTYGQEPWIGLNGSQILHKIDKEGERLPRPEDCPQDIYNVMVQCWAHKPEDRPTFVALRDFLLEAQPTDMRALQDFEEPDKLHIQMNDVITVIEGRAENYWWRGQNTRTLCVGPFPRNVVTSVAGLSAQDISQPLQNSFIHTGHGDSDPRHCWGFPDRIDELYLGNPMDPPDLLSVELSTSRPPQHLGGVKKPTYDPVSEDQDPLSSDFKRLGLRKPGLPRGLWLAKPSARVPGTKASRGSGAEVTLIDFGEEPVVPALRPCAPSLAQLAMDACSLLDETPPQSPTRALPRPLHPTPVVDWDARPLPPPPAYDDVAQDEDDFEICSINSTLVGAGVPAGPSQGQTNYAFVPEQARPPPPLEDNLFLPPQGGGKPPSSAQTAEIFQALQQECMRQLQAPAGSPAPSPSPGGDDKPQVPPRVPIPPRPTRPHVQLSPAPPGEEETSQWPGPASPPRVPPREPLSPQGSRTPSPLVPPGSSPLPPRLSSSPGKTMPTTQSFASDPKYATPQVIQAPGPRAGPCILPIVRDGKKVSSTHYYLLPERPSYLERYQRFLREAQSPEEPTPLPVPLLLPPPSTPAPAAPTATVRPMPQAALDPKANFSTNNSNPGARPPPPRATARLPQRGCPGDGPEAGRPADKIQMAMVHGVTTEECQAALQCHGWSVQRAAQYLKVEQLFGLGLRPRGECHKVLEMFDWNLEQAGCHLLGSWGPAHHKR

[3] = molecular target: T2, Serine/threonine-protein kinase BRSK2 (Homo sapiens) (UniProt Q8IWQ3); test: Selectivity interaction (KinomeScan (DiscoverX)) EUB0000666a BRSK2; conditions: at 10 µM
T2 sequence (whole entry): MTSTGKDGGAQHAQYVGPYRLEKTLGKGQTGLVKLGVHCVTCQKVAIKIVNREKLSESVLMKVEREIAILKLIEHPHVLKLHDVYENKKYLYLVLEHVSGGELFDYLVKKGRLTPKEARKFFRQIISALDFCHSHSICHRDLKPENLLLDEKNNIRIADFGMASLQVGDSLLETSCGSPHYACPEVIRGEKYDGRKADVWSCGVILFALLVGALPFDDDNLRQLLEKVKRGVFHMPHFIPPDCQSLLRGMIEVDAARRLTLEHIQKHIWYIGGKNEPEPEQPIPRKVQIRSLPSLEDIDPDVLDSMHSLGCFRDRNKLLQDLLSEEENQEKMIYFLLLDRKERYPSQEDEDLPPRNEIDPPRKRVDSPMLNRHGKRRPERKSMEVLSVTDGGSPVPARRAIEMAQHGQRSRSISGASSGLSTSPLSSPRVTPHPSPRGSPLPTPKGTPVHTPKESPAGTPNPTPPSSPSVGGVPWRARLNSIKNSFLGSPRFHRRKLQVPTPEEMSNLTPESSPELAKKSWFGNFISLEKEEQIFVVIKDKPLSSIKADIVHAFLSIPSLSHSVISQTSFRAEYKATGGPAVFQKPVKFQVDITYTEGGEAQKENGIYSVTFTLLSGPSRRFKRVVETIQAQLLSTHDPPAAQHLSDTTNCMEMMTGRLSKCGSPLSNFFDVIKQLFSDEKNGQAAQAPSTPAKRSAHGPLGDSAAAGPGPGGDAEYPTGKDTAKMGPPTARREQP

[4] = molecular target: Serine/threonine-protein kinase PAK 6 (Homo sapiens) (UniProt Q9NQU5); conditions: at 10 µM
[5] = molecular target: Dual specificity tyrosine-phosphorylation-regulated kinase 1A (Homo sapiens, UniProt Q13627); conditions: at 10 µM
[6] = molecular target: Mitogen-activated protein kinase 8 (Homo sapiens, UniProt P45983); test: Selectivity interaction (ActivX KiNativ screen (kinase selectivity in THP-1 cell lysates)) EUB0000639a MAPK8; assay type: subcellular; conditions: lysate
Sequence of Mitogen-activated protein kinase 8 (P45983 whole entry): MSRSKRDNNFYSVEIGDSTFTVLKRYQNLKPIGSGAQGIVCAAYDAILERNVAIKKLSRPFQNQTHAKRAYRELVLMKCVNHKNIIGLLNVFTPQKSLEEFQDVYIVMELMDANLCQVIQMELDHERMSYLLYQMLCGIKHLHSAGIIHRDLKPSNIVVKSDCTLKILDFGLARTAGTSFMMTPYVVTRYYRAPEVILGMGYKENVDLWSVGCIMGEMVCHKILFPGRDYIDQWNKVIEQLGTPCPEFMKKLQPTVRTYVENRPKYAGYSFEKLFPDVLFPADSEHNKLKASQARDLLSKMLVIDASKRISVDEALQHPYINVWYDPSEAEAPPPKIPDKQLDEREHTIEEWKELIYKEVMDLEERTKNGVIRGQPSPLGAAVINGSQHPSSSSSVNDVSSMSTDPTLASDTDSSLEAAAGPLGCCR

[7] = molecular target: TRAF2 and NCK-interacting protein kinase (Homo sapiens) (UniProt Q9UKE5); test: Selectivity interaction (ActivX KiNativ screen (kinase selectivity in THP-1 cell lysates)) EUB0000639a TNIK; assay type: subcellular; conditions: lysate
Sequence of TRAF2 and NCK-interacting protein kinase (Homo sapiens) (Q9UKE5 whole entry, looked up): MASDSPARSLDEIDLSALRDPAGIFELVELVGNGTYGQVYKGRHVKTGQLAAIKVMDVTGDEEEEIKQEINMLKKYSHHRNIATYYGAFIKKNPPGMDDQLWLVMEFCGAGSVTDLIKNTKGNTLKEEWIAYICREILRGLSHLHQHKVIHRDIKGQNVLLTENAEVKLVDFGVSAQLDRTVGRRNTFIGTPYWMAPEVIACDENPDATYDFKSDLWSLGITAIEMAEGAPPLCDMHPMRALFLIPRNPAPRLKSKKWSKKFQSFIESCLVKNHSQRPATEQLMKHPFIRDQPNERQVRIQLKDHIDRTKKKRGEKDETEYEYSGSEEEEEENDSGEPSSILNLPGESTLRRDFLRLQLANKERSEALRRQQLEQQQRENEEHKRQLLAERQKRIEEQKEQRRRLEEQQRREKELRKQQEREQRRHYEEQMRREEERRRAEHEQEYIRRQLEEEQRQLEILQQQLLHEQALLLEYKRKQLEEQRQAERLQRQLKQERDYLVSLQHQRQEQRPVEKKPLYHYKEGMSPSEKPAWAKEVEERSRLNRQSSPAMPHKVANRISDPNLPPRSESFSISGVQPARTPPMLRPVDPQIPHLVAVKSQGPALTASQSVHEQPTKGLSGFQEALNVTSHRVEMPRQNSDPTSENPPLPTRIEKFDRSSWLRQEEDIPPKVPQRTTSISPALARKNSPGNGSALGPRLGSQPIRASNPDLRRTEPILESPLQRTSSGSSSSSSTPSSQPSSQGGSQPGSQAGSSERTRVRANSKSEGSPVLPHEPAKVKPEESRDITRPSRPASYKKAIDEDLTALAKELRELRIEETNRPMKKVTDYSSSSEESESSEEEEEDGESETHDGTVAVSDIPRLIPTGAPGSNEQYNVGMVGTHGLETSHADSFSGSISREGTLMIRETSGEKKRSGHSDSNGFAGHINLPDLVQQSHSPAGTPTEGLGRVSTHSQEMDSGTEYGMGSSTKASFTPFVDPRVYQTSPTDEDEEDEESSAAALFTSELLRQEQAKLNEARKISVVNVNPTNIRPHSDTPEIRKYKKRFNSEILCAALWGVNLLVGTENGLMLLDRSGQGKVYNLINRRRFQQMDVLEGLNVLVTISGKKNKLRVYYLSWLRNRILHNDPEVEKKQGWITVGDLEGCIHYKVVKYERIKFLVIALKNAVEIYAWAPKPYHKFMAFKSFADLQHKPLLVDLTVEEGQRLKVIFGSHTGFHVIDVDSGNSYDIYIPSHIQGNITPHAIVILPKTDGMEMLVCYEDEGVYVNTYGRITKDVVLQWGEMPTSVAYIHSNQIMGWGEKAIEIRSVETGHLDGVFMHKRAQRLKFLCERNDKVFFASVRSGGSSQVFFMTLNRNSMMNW

[8] = molecular target: Mitogen-activated protein kinase 4 (Homo sapiens) (UniProt P31152); test: Selectivity interaction (KinomeScan (DiscoverX)) EUB0000607a MAPK4; conditions: at 10 µM
Sequence of Mitogen-activated protein kinase 4 (Homo sapiens) (P31152 whole entry): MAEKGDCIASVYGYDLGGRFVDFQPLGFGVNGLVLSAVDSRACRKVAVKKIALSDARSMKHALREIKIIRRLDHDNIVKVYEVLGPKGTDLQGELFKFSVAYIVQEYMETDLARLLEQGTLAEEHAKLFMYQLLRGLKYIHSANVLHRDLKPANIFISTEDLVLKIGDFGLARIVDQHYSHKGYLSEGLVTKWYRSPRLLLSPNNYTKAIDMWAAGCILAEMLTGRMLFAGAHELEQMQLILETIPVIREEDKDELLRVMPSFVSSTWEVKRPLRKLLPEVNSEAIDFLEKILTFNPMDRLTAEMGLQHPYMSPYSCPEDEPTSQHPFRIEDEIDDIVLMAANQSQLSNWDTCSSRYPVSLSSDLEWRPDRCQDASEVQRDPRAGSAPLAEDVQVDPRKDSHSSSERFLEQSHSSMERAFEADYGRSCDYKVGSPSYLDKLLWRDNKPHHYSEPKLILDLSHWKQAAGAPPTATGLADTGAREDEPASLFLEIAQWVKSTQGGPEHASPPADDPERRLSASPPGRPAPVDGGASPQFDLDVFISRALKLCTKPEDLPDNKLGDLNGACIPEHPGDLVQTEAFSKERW

[9] = molecular target: Tyrosine-protein kinase ABL1 (Homo sapiens, UniProt P00519); test: (§1) Selectivity interaction (KinomeScan (DiscoverX)) EUB0001049a ABL1; conditions: at 1 µM
[10] = system: Tyrosine-protein kinase ABL1 (Homo sapiens), P00519 [Q252H]; test: as §1; conditions: at 1 µM
[11] = system: Tyrosine-protein kinase ABL1 (Homo sapiens), P00519 [H396P]; test: as §1; conditions: at 1 µM
[12] = system: Tyrosine-protein kinase ABL1 (Homo sapiens), P00519 [E255K]; test: as §1; conditions: at 1 µM
[13] = system: Tyrosine-protein kinase ABL1 (Homo sapiens), P00519 [T315I]; test: as §1; conditions: at 1 µM
[14] = system: Tyrosine-protein kinase ABL1 (Homo sapiens), P00519 [F317L]; test: as §1; conditions: at 1 µM
[15] = system: Tyrosine-protein kinase ABL1 (Homo sapiens), P00519 [M351T]; test: as §1; conditions: at 1 µM
[16] = system: Tyrosine-protein kinase ABL1 (Homo sapiens), P00519 [Y253F]; test: as §1; conditions: at 1 µM
[17] = system: Tyrosine-protein kinase ABL1 (Homo sapiens), P00519 [F317I]; test: as §1; conditions: at 1 µM
[18] = molecular target: Tyrosine-protein kinase Lck (Homo sapiens, UniProt P06239); test: Selectivity interaction (KinomeScan (DiscoverX)) EUB0000045b LCK
Sequence of Tyrosine-protein kinase Lck (P06239 2-509 limits assumed): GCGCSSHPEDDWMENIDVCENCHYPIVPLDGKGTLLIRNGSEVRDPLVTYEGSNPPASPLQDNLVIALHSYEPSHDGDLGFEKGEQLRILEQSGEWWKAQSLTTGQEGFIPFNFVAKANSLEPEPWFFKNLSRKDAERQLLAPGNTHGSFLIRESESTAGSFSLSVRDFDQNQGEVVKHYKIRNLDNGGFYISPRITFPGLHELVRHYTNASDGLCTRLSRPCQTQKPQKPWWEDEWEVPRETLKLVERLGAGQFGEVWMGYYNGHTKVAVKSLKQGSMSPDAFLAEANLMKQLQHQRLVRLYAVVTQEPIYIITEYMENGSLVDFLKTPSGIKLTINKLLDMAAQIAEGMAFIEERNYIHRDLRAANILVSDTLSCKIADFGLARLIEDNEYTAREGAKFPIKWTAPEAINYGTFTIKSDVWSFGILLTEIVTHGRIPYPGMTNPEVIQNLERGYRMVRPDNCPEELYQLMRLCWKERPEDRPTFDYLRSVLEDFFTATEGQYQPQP

Question: Which % binding [1] does the source give for COc1cc(N(C)c2ccnc3ccc(C(F)(F)F)cc23)cc(OC)c1OC here?
Answer: 81%

Question: With CCC(=O)N1CCN(c2ccc(-n3c(=O)ccc4cnc5ccc(-c6cnc7ccccc7c6)cc5c43)cc2C(F)(F)F)CC1 as the compound, how does the % of control [2] read?
Answer: 47%

Question: Which % of control (Activated CDC42 kinase 1) does the source give for CN(C)CCOc1ccc(-c2nc(-c3ccncc3)c(-c3ccc4c(c3)CC/C4=N\O)[nH]2)cc1 here?
Answer: 100%

Question: For O=C(NOC[C@H](O)CO)c1ccc(F)c(F)c1Nc1ccc(I)cc1F, which % of control [3] is on record?
Answer: 100%

Question: Which results are given for Cc1cc([C@@H](C)Nc2ccccc2C(=O)O)c2nc(N3CCOCC3)cc(=O)n2c1 [AZD-6482]?
Answer: % of control [4]: 93%; % of control [5]: 90%

Question: For CC[C@@H]1[C@H](F)C(=O)N[C@@H]1COc1nccc2cc(C(N)=O)c(OC)cc12 [ZIMLOVISERTIB], which % of inhibition ([6]; at 0.01 µM) is on record?
Answer: 13.3%

Question: And the % of inhibition ([6]; at 0.04 µM)?
Answer: -1.4%

Question: And the % of inhibition ([6]; at 0.2 µM)?
Answer: 1.6%

Question: And the % of inhibition ([6]; at 1 µM)?
Answer: 27.7%

Question: What about the % of inhibition ([6]; at 5 µM) of the same compound?
Answer: 57.5%

Question: What about the % of inhibition ([7]; at 0.01 µM) of the same compound?
Answer: -2.8%

Question: What about the % of inhibition ([7]; at 0.04 µM) of the same compound?
Answer: -2.7%

Question: And the % of inhibition ([7]; at 0.2 µM)?
Answer: -20.6%

Question: And the % of inhibition ([7]; at 1 µM)?
Answer: -28.3%

Question: What about the % of inhibition ([7]; at 5 µM) of the same compound?
Answer: 16.1%

Question: Which % of control [8] does the source give for CNC(=O)Nc1ccc(-c2nc(N3CC4CCC(C3)O4)c3cnn(C4CCC5(CC4)OCCO5)c3n2)cc1 here?
Answer: 100%

Question: With COc1cc(Nc2nc(C)cc(-c3cnn4nc(OC)ccc34)n2)cc(C(F)(F)F)c1 as the compound, how does the % of control [9] read?
Answer: 63%

Question: And the % of control [10]?
Answer: 68%

Question: What about the % of control [11] of the same compound?
Answer: 64%

Question: And the % of control [12]?
Answer: 86%

Question: What about the % of control [13] of the same compound?
Answer: 75%

Question: And the % of control [14]?
Answer: 92%

Question: And the % of control [15]?
Answer: 99%

Question: And the % of control [16]?
Answer: 70%

Question: What about the % of control [17] of the same compound?
Answer: 97%

Question: What does the source list for C=CC(=O)Nc1cc(-n2c(=O)ccc3cnc4ccc(-c5ccc(NS(C)(=O)=O)cc5)cc4c32)ccc1C?
Answer: % of control ([18]; at 1 µM): 89%; % of control ([18]; at 10 µM): 80%
